Measured values taken from patent EP0484596A1, “Organotin compounds and anti-tumor compositions containing them” (priority 1990, dated 1992).

Experiments:
WiDr colon tumor cells = assay: in vitro cell growth inhibition, PIT method, WiDr; format: cell-based, human; conditions: amount which inhibits 50% of the cell growth
Procedure: (§1) The compounds (1), (2) and (3) as well as their starting compounds, i.e. (4), (5) and (6) respectively, [drawing 8] were tested in vitro against the following human tumor cell lines • MCF-7 mammary carcinoma • WiDr colon tumor cells
(§2) The tests were carried out according to the method of R. van Lambalgen and P. Lelieveld, The PIT Method: an automated in vitro technique for drug toxicity testing. Invest. New Drug 5, 161-165 (1987).
(§3) The ID50 values in ng/ml for the above compounds were determined, i.e. the amount which inhibits 50% of the cell growth.

MCF-7 mammary carcinoma = assay: in vitro cell growth inhibition, PIT method, MCF-7; format: cell-based, human; conditions: amount which inhibits 50% of the cell growth
Procedure: as §1, §2, §3

Molecule `N.N.[Cl][Pt][Cl]` [Cis-platin] has an ID50 (WiDr colon tumor cells) of 0.624 µg/mL and an ID50 (MCF-7 mammary carcinoma) of 0.85 µg/mL.
